Source: patent US12559506B2, “Indazole based compounds and associated methods of use” (Arvinas Operations, Inc., priority 2021, dated 2026)

Assays:
wildtype LRRK2 = biological target: T1, wildtype LRRK2 (Homo sapiens, UniProt Q5S007); experiment: LRRK2 degradation assay, HiBit-tagged wildtype LRRK2 expressed from plasmid in HEK293 cells (Nano-Glo Dual-Luciferase); assay type: cell-based; settings: HiBit-tagged wildtype LRRK2 in HEK293 cells, 24 hours; for Dmax: read-out: **WT Dmax (%); for DC50: read-out: *WT DC50
T1 construct: expressed in transfected cells; host or cells: HEK293 (ATCC CRL-1573), transient transfection, mammalian expression vector with ubiquitin promoter
T1 sequence (Q5S007 whole entry): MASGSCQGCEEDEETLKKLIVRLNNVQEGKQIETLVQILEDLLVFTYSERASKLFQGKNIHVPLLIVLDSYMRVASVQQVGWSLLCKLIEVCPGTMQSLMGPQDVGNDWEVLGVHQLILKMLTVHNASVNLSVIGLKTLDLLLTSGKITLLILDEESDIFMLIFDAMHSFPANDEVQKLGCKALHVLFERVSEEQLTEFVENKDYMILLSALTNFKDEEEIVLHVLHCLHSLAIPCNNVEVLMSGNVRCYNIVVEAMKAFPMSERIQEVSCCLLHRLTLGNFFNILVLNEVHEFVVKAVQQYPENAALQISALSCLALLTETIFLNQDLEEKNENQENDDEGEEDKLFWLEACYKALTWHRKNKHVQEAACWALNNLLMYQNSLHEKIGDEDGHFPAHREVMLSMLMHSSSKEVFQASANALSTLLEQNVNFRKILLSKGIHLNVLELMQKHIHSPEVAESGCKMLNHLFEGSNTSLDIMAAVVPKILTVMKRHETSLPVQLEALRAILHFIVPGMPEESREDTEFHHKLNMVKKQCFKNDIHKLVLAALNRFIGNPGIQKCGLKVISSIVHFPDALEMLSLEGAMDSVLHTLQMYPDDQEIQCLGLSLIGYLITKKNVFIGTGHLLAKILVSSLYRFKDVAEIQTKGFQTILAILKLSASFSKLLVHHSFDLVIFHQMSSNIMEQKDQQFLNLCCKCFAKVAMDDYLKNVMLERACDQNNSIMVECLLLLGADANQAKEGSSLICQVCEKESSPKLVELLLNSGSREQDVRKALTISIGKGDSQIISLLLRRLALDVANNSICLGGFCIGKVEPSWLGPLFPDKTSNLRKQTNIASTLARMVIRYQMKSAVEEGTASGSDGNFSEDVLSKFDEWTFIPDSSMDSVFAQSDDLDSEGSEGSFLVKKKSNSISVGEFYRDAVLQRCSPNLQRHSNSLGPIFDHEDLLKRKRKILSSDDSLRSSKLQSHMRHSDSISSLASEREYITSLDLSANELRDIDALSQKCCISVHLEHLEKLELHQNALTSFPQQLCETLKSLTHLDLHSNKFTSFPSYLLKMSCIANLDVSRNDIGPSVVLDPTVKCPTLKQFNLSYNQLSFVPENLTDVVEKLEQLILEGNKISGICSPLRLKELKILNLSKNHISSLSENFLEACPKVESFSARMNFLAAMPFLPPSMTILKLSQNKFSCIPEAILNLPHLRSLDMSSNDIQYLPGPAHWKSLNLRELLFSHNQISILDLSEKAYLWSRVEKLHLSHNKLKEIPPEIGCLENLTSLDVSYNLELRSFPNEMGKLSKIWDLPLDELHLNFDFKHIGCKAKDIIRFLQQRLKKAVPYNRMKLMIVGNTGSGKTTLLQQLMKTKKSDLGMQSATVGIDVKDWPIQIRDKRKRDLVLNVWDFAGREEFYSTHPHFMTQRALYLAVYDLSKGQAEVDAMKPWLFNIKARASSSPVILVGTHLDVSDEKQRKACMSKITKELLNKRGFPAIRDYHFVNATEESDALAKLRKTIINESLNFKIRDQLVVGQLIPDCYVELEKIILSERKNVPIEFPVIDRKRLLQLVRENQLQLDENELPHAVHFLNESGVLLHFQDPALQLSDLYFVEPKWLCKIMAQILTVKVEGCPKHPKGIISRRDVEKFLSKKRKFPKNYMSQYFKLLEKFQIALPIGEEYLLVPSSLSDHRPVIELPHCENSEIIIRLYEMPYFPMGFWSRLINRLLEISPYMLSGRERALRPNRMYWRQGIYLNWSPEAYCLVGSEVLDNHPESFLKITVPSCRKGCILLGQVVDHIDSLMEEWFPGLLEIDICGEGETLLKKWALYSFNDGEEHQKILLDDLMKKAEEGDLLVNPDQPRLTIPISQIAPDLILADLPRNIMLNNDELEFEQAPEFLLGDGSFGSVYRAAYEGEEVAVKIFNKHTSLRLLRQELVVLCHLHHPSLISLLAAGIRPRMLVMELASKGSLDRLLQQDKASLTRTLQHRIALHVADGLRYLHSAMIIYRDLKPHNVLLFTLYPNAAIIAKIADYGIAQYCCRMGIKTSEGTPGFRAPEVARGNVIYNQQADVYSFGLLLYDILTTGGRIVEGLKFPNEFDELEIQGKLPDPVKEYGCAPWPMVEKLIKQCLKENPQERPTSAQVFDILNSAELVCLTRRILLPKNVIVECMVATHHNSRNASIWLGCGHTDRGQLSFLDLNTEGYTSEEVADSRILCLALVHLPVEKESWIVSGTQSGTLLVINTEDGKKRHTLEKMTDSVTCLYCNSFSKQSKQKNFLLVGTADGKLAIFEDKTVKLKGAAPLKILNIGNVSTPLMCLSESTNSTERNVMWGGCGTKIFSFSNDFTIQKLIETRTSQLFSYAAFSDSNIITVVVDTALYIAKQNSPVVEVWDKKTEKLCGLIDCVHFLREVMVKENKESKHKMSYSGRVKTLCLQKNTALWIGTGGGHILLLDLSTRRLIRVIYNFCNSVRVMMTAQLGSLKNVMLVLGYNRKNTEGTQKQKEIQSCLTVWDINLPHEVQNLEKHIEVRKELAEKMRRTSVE
In short: (§1)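 HEK293 cells co-transfected with C-terminal HiBiT-tagged LRRK2 (WT or G2019S, ubiquitin promoter) and firefly luciferase, then dosed 24 h at 37 °C. HiBiT/firefly ratio normalized to DMSO median; DC50 and Dmax from per-plate curve fits, six replicates over two days.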

G2019S LRRK2 = biological target: T2, G2019S LRRK2 (Homo sapiens, UniProt Q5S007, G2019S); experiment: LRRK2 degradation assay, HiBit-tagged G2019S LRRK2 expressed from plasmid in HEK293 cells (Nano-Glo Dual-Luciferase); assay type: cell-based; settings: HiBit-tagged G2019S LRRK2 in HEK293 cells, 24 hours
T2 construct: expressed in transfected cells; host or cells: HEK293 (ATCC CRL-1573), transient transfection, mammalian expression vector with ubiquitin promoter
T2 sequence (Q5S007 whole entry G2019S): as the sequence (Q5S007 whole entry) above, with G2019S counted along it
In short: as §1

Dmax (wildtype LRRK2) [%] | DC50 (wildtype LRRK2) [nM] | DC50 (G2019S LRRK2) [nM] | Dmax (G2019S LRRK2) [%] | Structure (SMILES)
50 to 70 | 10 to 50 | 10 to 50 | < 50 | CC1(Oc2ccc3[nH]nc(-c4ccnc(N5CCC(CC6CCN(C(=O)C7CCN(c8ccc9c(c8)C(=O)N(C8CCC(=O)NC8=O)C9=O)CC7)CC6)CC5)c4)c3c2)CC1 (centres unmarked) [Compound 93, 2-(2,6-dioxopiperidin-3-yl)-5-(4-{4-[(1-{4-[5-(1-methylcyclopropoxy)-1H-indazol-3-yl]pyridin-2-yl}piperidin-4-yl)methyl]piperidine-1-carbonyl}piperidin-1-yl)-2,3-dihydro-1H-isoindole-1,3-dione]
50 to 70 | < 10 | < 10 | 50 to 70 | CC1(Oc2ccc3[nH]nc(-c4cc(N5CCC(CN6CCN(C(=O)C7CCN(c8ccc9c(c8)C(=O)N(C8CCC(=O)NC8=O)C9=O)CC7)CC6)CC5)ncn4)c3c2)CC1 (centres unmarked) [Compound 94, 2-(2,6-dioxopiperidin-3-yl)-5-(4-{4-[(1-{6-[5-(1-methylcyclopropoxy)-1H-indazol-3-yl]pyrimidin-4-yl}piperidin-4-yl)methyl]piperazine-1-carbonyl}piperidin-1-yl)-2,3-dihydro-1H-isoindole-1,3-dione]
50 to 70 | < 10 | < 10 | 50 to 70 | CC1(Oc2ccc3[nH]nc(-c4ccnc(N5CCC(CN6CCN(C(=O)C7CCN(c8ccc9c(c8)C(=O)N(C8CCC(=O)NC8=O)C9=O)CC7)CC6)CC5)c4)c3c2)CC1 (centres unmarked) [Compound 95, 2-(2,6-dioxopiperidin-3-yl)-5-(4-{4-[(1-{4-[5-(1-methylcyclopropoxy)-1H-indazol-3-yl]pyridin-2-yl}piperidin-4-yl)methyl]piperazine-1-carbonyl}piperidin-1-yl)-2,3-dihydro-1H-isoindole-1,3-dione]
50 to 70 | < 10 | < 10 | 50 to 70 | CC1(Oc2ccc3n[nH]c(-c4cc(N5CCN(CC6(F)CCN(C(=O)C7CCN(c8ccc9c(c8)C(=O)N(C8CCC(=O)NC8=O)C9=O)CC7)CC6)CC5)ncn4)c3c2)CC1 (centres unmarked) [Compound 96, 2-(2,6-dioxo-3-piperidyl)-5-[4-[4-fluoro-4-[[4-[6-[5-(1-methylcyclopropoxy)-1H-indazol-3-yl]pyrimidin-4-yl]piperazin-1-yl]methyl]piperidine-1-carbonyl]-1-piperidyl]isoindoline-1,3-dione]
50 to 70 | < 10 | < 10 | < 50 | CC1(Oc2ccc3[nH]nc(-c4ccnc(N5CCN(CC6(F)CCN(C(=O)C7CCN(c8ccc9c(c8)C(=O)N(C8CCC(=O)NC8=O)C9=O)CC7)CC6)CC5)c4)c3c2)CC1 (centres unmarked) [Compound 97, 2-(2,6-dioxo-3-piperidyl)-5-[4-[4-fluoro-4-[[4-[4-[5-(1-methylcyclopropoxy)-1H-indazol-3-yl]-2-pyridyl]piperazin-1-yl]methyl]piperidine-1-carbonyl]-1-piperidyl]isoindoline-1,3-dione]
 | ≥ 100 | ≥ 100 |  | CC1(Oc2ccc3[nH]nc(-c4cc(N5CCC(CN6CCN(CC7CCN(c8ccc9c(c8)C(=O)N(C8CCC(=O)NC8=O)C9=O)CC7)CC6)CC5)ccn4)c3c2)CC1 (centres unmarked) [Compound 98, 2-(2,6-dioxo-3-piperidyl)-5-[4-[[4-[[1-[2-[5-(1-methylcyclopropoxy)-1H-indazol-3-yl]-4-pyridyl]-4-piperidyl]methyl]piperazin-1-yl]methyl]-1-piperidyl]isoindoline-1,3-dione]
< 50 | 50 to 100 | 50 to 100 | < 50 | CC1(Oc2ccc3[nH]nc(-c4cc(N5CCC(CN6CCN(CC7CCN(c8ccc9c(c8)C(=O)N(C8CCC(=O)NC8=O)C9=O)CC7)CC6)CC5)ncc4F)c3c2)CC1 (centres unmarked) [Compound 99, 2-(2,6-dioxo-3-piperidyl)-5-[4-[[4-[[1-[5-fluoro-4-[5-(1-methylcyclopropoxy)-1H-indazol-3-yl]-2-pyridyl]-4-piperidyl]methyl]piperazin-1-yl]methyl]-1-piperidyl]isoindoline-1,3-dione]
